Target: FGFR2 (Homo sapiens (Human), UniProt P21802)
Experiment: FGFR2 Biochemical Caliper Assay
Method: Compounds of the present invention were also tested in a FGFR2 Biochemical Caliper Assay. Compounds were prepared in 10 mM DMSO solution and serially diluted into 11 concentrations by 3-fold dilution. […] 5 uL of ATP solution (100 uM) was added to start the reaction and the plate was incubated for 90 minutes, then 70 uL of stopping buffer (0.5M EDTA) was added to terminate the reaction. Each well was analyzed using EZ reader.

Chain of FGFR2 (P21802 22-821): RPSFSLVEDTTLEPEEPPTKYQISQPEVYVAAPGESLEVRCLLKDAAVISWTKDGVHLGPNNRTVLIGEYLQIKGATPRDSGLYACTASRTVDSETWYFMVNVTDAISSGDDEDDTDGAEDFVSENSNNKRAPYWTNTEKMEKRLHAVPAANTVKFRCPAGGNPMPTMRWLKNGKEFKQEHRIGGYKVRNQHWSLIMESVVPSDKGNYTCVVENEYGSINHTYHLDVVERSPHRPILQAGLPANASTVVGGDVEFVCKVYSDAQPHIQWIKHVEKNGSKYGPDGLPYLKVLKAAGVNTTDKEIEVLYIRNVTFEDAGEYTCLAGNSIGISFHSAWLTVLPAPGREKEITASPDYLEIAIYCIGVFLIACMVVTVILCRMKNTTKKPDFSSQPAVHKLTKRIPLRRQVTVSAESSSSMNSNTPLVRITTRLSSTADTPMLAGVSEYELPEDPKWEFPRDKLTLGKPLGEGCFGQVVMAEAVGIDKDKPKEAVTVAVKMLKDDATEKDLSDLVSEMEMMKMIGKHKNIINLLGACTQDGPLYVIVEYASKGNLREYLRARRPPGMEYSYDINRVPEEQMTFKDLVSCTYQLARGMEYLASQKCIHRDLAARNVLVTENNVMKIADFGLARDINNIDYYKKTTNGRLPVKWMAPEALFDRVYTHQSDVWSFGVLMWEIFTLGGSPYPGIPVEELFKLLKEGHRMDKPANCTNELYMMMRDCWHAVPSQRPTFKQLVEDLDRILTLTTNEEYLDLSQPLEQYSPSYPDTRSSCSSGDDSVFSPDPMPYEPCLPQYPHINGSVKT

Compound | IC50
C=C(C)C(=O)Nc1ccc(-c2c(C3=CC[C@@H](C(=O)NCC(C)(C)OC)CC3)c3c(N)ncnc3n2C)cc1 (single isomer, unassigned) [Example 431] | 250 to 1000 nM
C=C(C)C(=O)Nc1ccc(-c2c(C3=CC[C@H](C(=O)NCC(C)(C)OC)CC3)c3c(N)ncnc3n2C)cc1 (single isomer, unassigned) [Example 432] | 1000 to 100000 nM
C=C(C)C(=O)Nc1ccc(-c2c(-c3ccc(C(=O)N(C)C[C@H]4CCOC4)cc3)c3c(N)ncnc3n2C)cc1 (single isomer, unassigned) [Example 472] | 250 to 1000 nM
C=C(C)C(=O)Nc1ccc(-c2c(-c3ccc(C(=O)N(C)C[C@@H]4CCOC4)cc3)c3c(N)ncnc3n2C)cc1 (single isomer, unassigned) [Example 473] | 250 to 1000 nM
C=C(C)C(=O)Nc1ccc(-c2c(-c3ccc(C(=O)N4CCCC4)cc3)c3c(N)ncnc3n2C)c([C@H]2CCCO2)c1 (single isomer, unassigned) [Example 509] | 250 to 1000 nM
C=C(C)C(=O)Nc1ccc(-c2c(-c3ccc(C(=O)N4CCCC4)cc3)c3c(N)ncnc3n2C)c([C@@H]2CCCO2)c1 (single isomer, unassigned) [Example 510] | < 100 nM
C=C(C)C(=O)Nc1ccc(-c2c(C3=CC[C@@H](Oc4ccn(C)n4)CC3)c3c(N)ncnc3n2C)cc1 (single isomer, unassigned) [Example 549] | 1000 to 100000 nM
C=C(C)C(=O)Nc1ccc(-c2c(C3=CC[C@H](C(=O)N4CCC[C@H]4C#N)CC3)c3c(N)ncnc3n2C)cc1 (single isomer, unassigned) [Example 574] | 250 to 1000 nM
C=C(C)C(=O)Nc1ccc(-c2c(C3=CC[C@H](C(=O)N4CC[C@@H](CO)C4)CC3)c3c(N)ncnc3n2C)cc1 (single isomer, unassigned) [Example 575] | 1000 to 100000 nM
C=C(C)C(=O)Nc1ccc(-c2c(C3=CC[C@H](C(=O)N4CC[C@@H](F)C4)CC3)c3c(N)ncnc3n2C)cc1 (single isomer, unassigned) [Example 576] | 1000 to 100000 nM
Cn1c(-c2ccc(NC(=O)C3=CCC3)cc2)c(C2=CC[C@H](C(=O)N3CCCC3)CC2)c2c(N)ncnc21 (single isomer, unassigned) [Example 579] | 250 to 1000 nM
C=C(C)C(=O)Nc1ccc(-c2c(C3=CC[C@H](C(=O)N4CC[C@@H](OC)C4)CC3)c3c(N)ncnc3n2C)cc1 (single isomer, unassigned) [Example 580] | 1000 to 100000 nM
C=C(C)C(=O)Nc1ccc(-c2c(C3=CC[C@@H](C(=O)N4CC[C@@H](CO)C4)CC3)c3c(N)ncnc3n2C)cc1 (single isomer, unassigned) [Example 583] | 250 to 1000 nM
Cn1c(-c2ccc(NC(=O)[C@H]3CO3)cc2)c(-c2ccc(C(=O)N3CCCC3)cc2)c2c(N)ncnc21 (single isomer, unassigned) [Example 585] | 100 to 250 nM
C=C(C)C(=O)Nc1ccc(-c2c(C3=CC[C@@H](C(=O)N4CC[C@@H](F)C4)CC3)c3c(N)ncnc3n2C)cc1 (single isomer, unassigned) [Example 591] | 100 to 250 nM
C=C(C)C(=O)Nc1ccc(-c2c(C3=CC[C@@H](C(=O)N4CC[C@@H](OC)C4)CC3)c3c(N)ncnc3n2C)cc1 (single isomer, unassigned) [Example 593] | 250 to 1000 nM
C=CCC(=O)Nc1ccc(-c2c(-c3ccc(Oc4cccc(C)n4)c(OC)c3)c3c(N)ncnc3n2C)cc1 [Example 2] | 250 to 1000 nM
C=CC(=O)N1CCCc2cc(-c3c(-c4ccc(Oc5cccc(C)n5)c(OC)c4)c4c(N)ncnc4n3C)ccc21 [Example 3] | < 100 nM
C=CC(=O)N(C)c1ccc(-c2c(-c3ccc(Oc4cccc(C)n4)c(OC)c3)c3c(N)ncnc3n2C)cc1 [Example 6] | 100 to 250 nM
C=CC(=O)Nc1cccc(-c2c(-c3ccc(Oc4cccc(C)n4)c(OC)c3)c3c(N)ncnc3n2C)c1 [Example 7] | < 100 nM
C=CC(=O)N1Cc2ccc(-c3c(-c4ccc(Oc5cccc(C)n5)c(OC)c4)c4c(N)ncnc4n3C)cc2C1 [Example 8] | < 100 nM
C=CC(=O)N(C)c1ccc(-c2c(-c3ccc(Oc4cccc(C)n4)cc3)c3c(N)ncnc3n2C)cc1 [Example 9] | < 100 nM

Compound | IC50
C=CC(=O)N1CCc2cc(-c3c(-c4ccc(Oc5cccc(C)n5)c(OC)c4)c4c(N)ncnc4n3C)ccc21 [Example 10] | < 100 nM
C=CC(=O)Nc1ccc(-c2c(-c3ccc(Oc4cccc(C)n4)c(C)c3)c3c(N)ncnc3n2C)cc1 [Example 19] | < 100 nM
C=CC(=O)N1CCc2cc(-c3c(-c4ccc(Oc5cccc(C)n5)cc4)c4c(N)ncnc4n3C)ccc2C1 [Example 20] | 100 to 250 nM
C=CC(=O)Nc1ccc(-c2c(-c3ccc(Oc4cccc(C)n4)cc3)c3c(N)ncnc3n2C)cc1C [Example 21] | < 100 nM
C=CC(=O)Nc1cccc(-c2c(-c3ccc(Oc4cccc(C)n4)cc3)c3c(N)ncnc3n2C)c1 [Example 22] | < 100 nM
C=C(C)C(=O)Nc1ccc(-c2c(-c3ccc(Oc4ccccc4)cc3)c3c(N)ncnc3n2C)cc1 [Example 23] | 250 to 1000 nM
C=CC(=O)Nc1ccc(-c2c(-c3cccc(OC)c3)c3c(N)ncnc3n2C)cc1 [Example 25] | < 100 nM
C=CC(=O)Nc1ccc(-c2c(-c3ccc(Oc4cccc(C)c4)cc3)c3c(N)ncnc3n2C)cc1 [Example 28] | < 100 nM
C=C(C)C(=O)Nc1ccc(-c2c(-c3ccc(Oc4cccc(C)c4)cc3)c3c(N)ncnc3n2C)cc1 [Example 29] | 250 to 1000 nM
C=C(C)C(=O)Nc1ccc(-c2c(-c3ccc(Oc4ccccc4)c(OC)c3)c3c(N)ncnc3n2C)cc1 [Example 30] | 250 to 1000 nM
C=C(C)C(=O)Nc1ccc(-c2c(-c3ccc(Oc4cccc(C)c4)c(OC)c3)c3c(N)ncnc3n2C)cc1 [Example 33] | 250 to 1000 nM
C=CC(=O)Nc1ccc(-c2c(-c3ccc(Oc4cc(C)ccn4)c(OC)c3)c3c(N)ncnc3n2C)cc1 [Example 34] | < 100 nM
C=CC(=O)Nc1ccc(-c2c(Br)c3c(N)ncnc3n2C)cc1 [Example 37] | < 100 nM
C=CC(=O)Nc1ccc(-c2c(-c3ccc(Oc4ccncc4)c(OC)c3)c3c(N)ncnc3n2C)cc1 [Example 39] | 100 to 250 nM
C=CC(=O)Nc1ccc(-c2c(-c3ccc(Oc4ccc(C)cn4)c(OC)c3)c3c(N)ncnc3n2C)cc1 [Example 40] | < 100 nM
C=CC(=O)Nc1ccc(-c2c(-c3ccc(Oc4cncc(C)c4)c(OC)c3)c3c(N)ncnc3n2C)cc1 [Example 41] | < 100 nM
C=CC(=O)Nc1ccc(-c2c(-c3ccc(Oc4ncccc4C)c(OC)c3)c3c(N)ncnc3n2C)cc1 [Example 42] | < 100 nM
CCC(=O)Nc1ccc(-c2c(-c3ccc(Oc4ncccn4)c(OC)c3)c3c(N)ncnc3n2C)cc1 [Example 43] | 1000 to 100000 nM
C=CC(=O)Nc1ccc(-c2c(-c3ccc(Oc4ccc(C)nc4)c(OC)c3)c3c(N)ncnc3n2C)cc1 [Example 44] | < 100 nM
C=CC(=O)Nc1ccc(-c2c(-c3ccc(OC)c(OC)c3)c3c(N)ncnc3n2C)cc1 [Example 46] | < 100 nM
C=C(C)C(=O)Nc1ccc(-c2c(-c3ccc(Oc4ncccn4)cc3)c3c(N)ncnc3n2C)cc1 [Example 52] | < 100 nM
C=C(C)C(=O)Nc1ccc(-c2c(-c3cccc(OC)c3)c3c(N)ncnc3n2C)cc1 [Example 55] | 250 to 1000 nM

Compound | IC50
C=CC(=O)Nc1ccc(-c2c(-c3ccc(Nc4ncccn4)c(OC)c3)c3c(N)ncnc3n2C)cc1 [Example 56] | < 100 nM
C=CC(=O)Nc1ccc(-c2c(-c3ccc(N(C)c4ncccn4)c(OC)c3)c3c(N)ncnc3n2C)cc1 [Example 57] | 100 to 250 nM
C=CC(=O)Nc1ccc(-c2c(-c3ccc(Nc4ncccn4)cc3)c3c(N)ncnc3n2C)cc1 [Example 58] | < 100 nM
C=C(C)C(=O)Nc1ccc(-c2c(-c3ccc(Nc4ncccn4)cc3)c3c(N)ncnc3n2C)cc1 [Example 59] | 100 to 250 nM
C=CC(=O)Nc1ccc(-c2c(-c3ccc(N(C)c4ncccn4)cc3)c3c(N)ncnc3n2C)cc1 [Example 61] | < 100 nM
C=C(C)C(=O)Nc1ccc(-c2c(-c3ccc(N(C)c4ncccn4)cc3)c3c(N)ncnc3n2C)cc1 [Example 62] | 1000 to 100000 nM
CCC(=O)Nc1ccc(-c2c(-c3ccc(Oc4ncccn4)cc3)c3c(N)ncnc3n2C)cc1 [Example 63] | 1000 to 100000 nM
C=C(C)C(=O)Nc1ccc(-c2c(-c3ccc(Oc4ncc(CO)cn4)cc3)c3c(N)ncnc3n2C)cc1 [Example 64] | 1000 to 100000 nM
C=C(C)C(=O)Nc1ccc(-c2c(-c3ccc(Oc4ncc(CO)cn4)c(OC)c3)c3c(N)ncnc3n2C)cc1 [Example 65] | 1000 to 100000 nM
CCC(=O)Nc1ccc(-c2c(-c3ccc(Oc4cccc(C)n4)c(OC)c3)c3c(N)ncnc3n2C)cc1 [Example 66] | 1000 to 100000 nM
CCC(=O)Nc1ccc(-c2c(-c3ccc(Oc4ccccn4)c(OC)c3)c3c(N)ncnc3n2C)cc1 [Example 67] | 1000 to 100000 nM
C=CC(=O)Nc1ccc(-c2c(-c3ccc(Sc4ncccn4)cc3)c3c(N)ncnc3n2C)cc1 [Example 68] | < 100 nM
C=CC(=O)Nc1ccc(-c2c(-c3ccc(Oc4ncccn4)c(CO)c3)c3c(N)ncnc3n2C)cc1 [Example 71] | 250 to 1000 nM
C/C=C/C(=O)Nc1ccc(-c2c(-c3cccc(OC)c3)c3c(N)ncnc3n2C)cc1 [Example 72] | 250 to 1000 nM
CC#CC(=O)Nc1ccc(-c2c(-c3cccc(OC)c3)c3c(N)ncnc3n2C)cc1 [Example 73] | 100 to 250 nM
C=CC(=O)Nc1ccc(-c2c(C3=CCN(C(=O)C(F)(F)F)CC3)c3c(N)ncnc3n2C)cc1 [Example 74] | 250 to 1000 nM
C=CC(=O)Nc1ccc(-c2c(C3=CCNCC3)c3c(N)ncnc3n2C)cc1 [Example 75] | 250 to 1000 nM
C=CC(=O)Nc1ccc(-c2c(-c3ccccc3)c3c(N)ncnc3n2C)cc1 [Example 76] | 100 to 250 nM
C=C(C)C(=O)Nc1ccc(-c2c(-c3ccc(Oc4cccc(C)n4)cc3)c3c(N)ncnc3n2CCN2CCOCC2)cc1 [Example 79] | 100 to 250 nM
C=C(C)C(=O)Nc1ccc(-c2c(-c3ccc(Oc4cccc(C)n4)cc3)c3c(N)ncnc3n2CCN(C)C)cc1 [Example 80] | 100 to 250 nM
C=CC(=O)Nc1ccc(-c2c(-c3ccc(C(=O)c4ccccc4C)c(OC)c3)c3c(N)ncnc3n2C)cc1 [Example 81] | < 100 nM

From patent US11780845B2 (Relay Therapeutics, Inc., priority 2019, dated 2023)
